Tests used:
Assay type in all cases: in vivo
Purkinje cells = assay: Test Example 6: increase in Purkinje cells of adult mouse after injection into E11.5 fetal ventricle; conditions: test compounds = Compounds 1 to 7; 100 μM injected into E11.5 fetal ventricle, counted in adult mice; vs control; N=10
Procedure: A solution prepared by dissolving 100 μM of the test compound in physiological saline was injected into E11.5 mouse fetal ventricle. Brains of adult mouse individuals were fixed, and slice sections of cerebellar Purkinje cell layers were immunostained with an anti-d-Calbindin antibody, which is a marker of cell bodies and neurites of Purkinje cells. After staining, the number of Purkinje cells was counted, and the average value thereof was calculated.
As a control experiment (control), a similar experiment was performed using physiological saline containing no test compound.
The number of samples is 10 for each of Compounds 1 to 7 and control (N=10).

[1] = system: mesencephalic neural stem cells; assay: Test Example 7: increase in neural stem cells of adult zebrafish by intracerebroventricular administration; conditions: test compounds = Compounds 1 to 7; 100 μM into ventricle of one-month-old fish, 1 week; E3 Ringer or lipofection; vs control
Procedure: Reporter gene transgenic line of zebrafish specifically expressing green fluorescent protein in mesencephalic neural stem cells
A solution (0.1% DMSO) in which the test compound (100 μM) was dissolved in E3 Ringer (zebrafish physiological saline) was prepared. Mesencephalic neural stem cells were microscopically injected into the ventricles of one-month-old adult fish individuals labeled with green fluorescent protein, and cultured at 28.5° C. for 1 week.
As a control experiment (control), only E3 Ringer (0.1% DMSO plus 0.025% phenol red) was administered into the ventricle in the same volume. […]
Specifically, the solid cultured for 7 days after injection was held in a 3% methylcellulose/E3 Ringer/0.02% tricaine solution on a slide glass, and then GFP was emitted with 488 nm excitation light and imaged by a CCD camera. In addition, the average fluorescence brightness of the green fluorescent protein in a rectangle with a width of 100 μm and a height of 50 μm with the rostral end up around the fluorescence expression part was measured with a brightness analysis software. […]
In order to inhibit synthesis of melanin pigment that interferes with observation with a fluorescence microscope, 0.2 mM phenylthiourea (PTU) had been added to the culture solution.

cardiomyocytes = assay: Test Example 8: enhancement of myocardium in zebrafish embryo (nkx2.5 in situ hybridization, blood cells pumped per heartbeat); conditions: test compounds = Compounds 1 to 7; 100 μM injected at heart primordium 10 h after fertilization; vs control; n=80
Procedure: Zebrafish embryos at 10 hours after fertilization were held with the dorsal side of the head up on a coffin (plastic plate with V-shaped grooves for holding), and a glass capillary was inserted into a midline between head and ear vesicles (heart primordium). Nitrogen gas pressure (15 picosiemens) was applied for 15 to 45 milliseconds and injected into the gap just below the neural tube. The test compound concentration was 100 μM/E3, and 0.025% (final concentration) phenol red was mixed as a tracer of the injection solution. The injection was performed in pulses with a foot pedal and continued until phenol red was distributed in an elliptical shape with a major axis of 200 μm from the insertion point. After injection, embryos were cultured at 28.5° C. for 14 hours in E3. After chorions were removed with tweezers, the embryos were fixed with 4% paraformaldehyde/PBS at normal temperature for 1 hour, and in situ hybridization was performed overnight at 65° C. in the presence of a DIG probe of nk×2.5 as a cardiac muscle marker according to a conventional method. After washing, cardiomyocytes were stained by an alkali phosphatase color reaction using an anti-DIG antibody. The stained embryos were washed with PBS, embedded in 75% glycerin/PBS and localized, and then microscopically photographed with incident light. The number of tested individuals was unified with n=80 for each compound.
In addition, the zebrafish embryos injected with the test compound by the above-described method were cultured at 28.5° C. until 48 hours after fertilization, embedded in 3% methyl cellulose/E3, and a moving image was photographed. The number of blood cells pumped in one heartbeat in time-lapse was counted n=15 and compared to Ringer injected individuals.

pancreatic β cells = assay: Test Example 9: pancreatic β cells and insulin in transgenic zebrafish embryos; conditions: vs control; for production amount of insulin by β cells (in situ hybridization, ins probe): 100 nM, 14 h after injection, n=100; for production amount of insulin by β cells (immunostaining with anti-insulin antibody, average fluorescence intensity): 100 nM or 5 nM, 20 h after injection, n=10
Procedure: Transgenic zebrafish expressing pancreatic β-cell GFP
Transgenic zebrafish embryos expressing pancreatic β-cell GFP at 10 hours after fertilization were held with the dorsal side of the head up on a coffin, and a glass capillary was inserted from the dorsal side into a gap just below the midline neural tube at about 2 times the distance between the rostral end and the ear vesicles to the caudal side (pancreatic primordium). A nitrogen gas pressure (15 picosiemens) was applied for 15 to 45 milliseconds, and the test compound was injected. The concentration of the test compound was 100 nM/E3, and 0.025% (final concentration) phenol red was mixed as a tracer of the infusion solution. The injection was performed in pulses with a foot pedal and continued until phenol red was distributed in an elliptical shape with a major axis of 200 μm from the insertion point.
The test compound (100 nM) was injected on a coffin in transgenic zebrafish embryos expressing pancreatic β-cell GFP at 10 hours after fertilization. After injection, embryos were cultured in E3 at 28.5° C. for 14 hours. After chorions were removed with tweezers, the embryos were fixed with 4% paraformaldehyde/PBS at room temperature for 1 hour, and in situ hybridization was performed overnight at 65° C. in the presence of a DIG probe of insulin (ins) according to a conventional method. After washing, β cells were stained by an alkali phosphatase color reaction using an anti-DIG antibody. After staining, the embryos were washed with PBS, embedded in 75% glycerin/PBS and localized, and then microscopically photographed with incident light. The number of test individuals was unified with n=100 for each test compound (FIG. 23).
Transgenic zebrafish embryos expressing pancreatic β-cell GFP at 10 hours after fertilization were injected with the test compound (100 nM or 5 nM) on the coffin. After injection, embryos were cultured in E3 at 28.5° C. for 20 hours in the presence of 0.2 mM phenylthiourea (PTU). After chorions were removed with tweezers, the embryos were fixed with 4% paraformaldehyde/PBS at normal temperature for 1 hour, immunohistochemically reacted with an anti-insulin antibody according to a conventional method, and then reacted with an Alexa fluor 488 anti-mouse IgG secondary antibody. The reacted embryos were washed with PBS, embedded in 75% glycerin/PBS and localized, and then microscopically photographed with 488 nm excitation light (FIG. 24). The number of tested individuals was unified with n=10 for each compound. The insulin amount was quantified by measuring the average fluorescence intensity in a circle with a radius of 100 μm centered on the fluorescence point (FIG. 25).

[2] = system: sox1α, sox2, sox3, and her6; assay: Test Example 1: quantitative PCR of neural stem cell markers in brains of treated zebrafish; conditions: brain of treated zebrafish individuals; ΔΔCt; vs control
Procedure: Moreover, the brains of the treated zebrafish individuals were dissected and washed with sterile distilled water, and then crushed by pipetting or 1 ml syringe suction discharge with 18 G to 24 G needles in 500 μl of Sepasol-RNA I Super G (Nacalai Tesque). A deproteinization operation was conducted once by equivalent phenol/chloroform treatment and once by chloroform treatment, and the supernatant was subjected to RNA purification using an RNA purification column (RNeasy Plus Mini Kit, Qiagen). The elute was reverse-transcribed using a mixed primer of random hexamer and oligo-dT (ReverTra Ace qPCR Kit, TOYOBO) at 37° C. for 15 minutes and 98° C. for 5 minutes, and quantitative PCR of expression levels of sox1α, sox2, sox3, and her6, which are markers of neural stem cells, was performed. Quantitative PCR was performed with SYBER Green Realtime PCR Master Mix (TOYOBO). For the PCR reaction, ABI PRISM 7700 or LightCycler from Roche Diagnostics K.K. was used. Quantification was performed in 3 wells per identical sample (n=3). The obtained data was comparatively quantified by a ΔΔCt method using a normalizer (β-actin, GAPDH, 18S, or the like). In order to confirm that the quantitative reaction was reliable, it was confirmed that the amplification product was in a band by agarose electrophoresis.

O=C(O)CCC(=O)Nc1ccc(Br)cn1 [Compound 5, 4-[(5-Bromopyridin-2-yl)amino]-4-oxobutyric acid]
number of Purkinje cells in the cerebellar Purkinje cell layers (Purkinje cells): significantly higher than that of the control
fluorescence indicating the presence of mesencephalic neural stem cells in the brain of adult zebrafish [1]: strongly detected as compared with the control
amount of cardiomyocytes (in situ hybridization, nkx2.5) (cardiomyocytes): increase in the amount of cardiomyocytes was observed
production amount of insulin by β cells (in situ hybridization, ins probe) (pancreatic β cells): significantly increased as compared with the control individual

Cc1cccc(-c2n[nH]cc2-c2ccnc3ccccc23)n1 [Compound 2, 4-[3-(6-Methylpyridin-2-yl)-1H-pyrazol-4-yl]quinoline]
expression levels of sox1α, sox2, sox3, and her6 (quantitative PCR) [2]: significant increase in expression levels
number of Purkinje cells in the cerebellar Purkinje cell layers (Purkinje cells): significantly higher than that of the control
amount of cardiomyocytes (in situ hybridization, nkx2.5) (cardiomyocytes): increase in the amount of cardiomyocytes was observed
production amount of insulin by β cells (immunostaining with anti-insulin antibody, average fluorescence intensity) (pancreatic β cells): significantly increased as compared with the control individual
production amount of insulin by β cells (in situ hybridization, ins probe) (pancreatic β cells): significantly increased as compared with the control individual

COc1cc(N2CCC(N(C)C)CC2)ccc1Nc1ncc(Cl)c(Nc2ccccc2P(C)(C)=O)n1 [Compound 6, 5-Chloro-2-N-{4-[4-(dimethylamino)piperidin-1-yl]-2-methoxyphenyl}-4-N-[2-(dimethylphosphoryl)phenyl]pyrimidine-2,4-diamine]
production amount of insulin by β cells (immunostaining with anti-insulin antibody, average fluorescence intensity) (pancreatic β cells): significantly increased as compared with the control individual
production amount of insulin by β cells (in situ hybridization, ins probe) (pancreatic β cells): significantly increased as compared with the control individual

From US20230134859A1, “METHOD FOR SCREENING FOR, METHOD FOR PRODUCING, AND METHOD FOR DESIGNING DRUG ACTIVE INGREDIENTS” (SKY PHARMA CO., LTD., priority 2020, published 2023)
